Values joined by “and” are separate entries in the source; they are usually repeats but may differ in a detail not shown here. Identical values can stand only once.
How the values were obtained:
WIL2-S = assay: ADCC LDH release assay, purified NK cells against WIL2-S target cells; format: cell-based, human; settings: for Percentage of maximum ADCC, obinutuzumab: obinutuzumab 10 μg/mL; for Percentage of maximum ADCC, rituximab: rituximab 10 μg/mL
PI3Kδ = PI3Kδ (Homo sapiens, UniProt O00329); assay: TR-FRET in vitro biochemical enzyme assay of class I PI3K isoforms
Description: The effects of Compound B on the activities of class I PI3K isoforms were measured using an in vitro biochemical enzyme assay at steady-state concentrations of adenosine triphosphate (ATP). Compound B is (S)-2-(1-((9H-purin-6-yl)amino)propyl)-5-fluoro-3-phenylquinazolin-4(3H)-one as described above.
A time resolved fluorescence resonance energy transfer (TR-FRET) assay was used to monitor the formation of […] (PIP3) molecule, as it competed with fluorescently labeled PIP3 for binding to the GRP-1 pleckstrin homology domain protein.

p-AKT Ser473 = assay: Flow cytometry, basal AKT phosphorylation in CD34+ progenitor cells from MF patients; format: cell-based, human; settings: one line per patient, vehicle=100
Description: PBMCs were isolated from whole blood of myelofibrosis (MF) patients who had not received treatments (i.e. naïve patients) or received ruxolitinib (i.e. rux-treated patients). The cells were treated with 0.02, 0.2, or 2.0 μM of Compound B or vehicle (0.1% DMSO in 0.1% FBS/RPMI) for 2 hours at 37° C. The cells were then fixed, permeabilized, and stained for FACS analysis. Antibodies specific to p-AKT Ser473 and pS6RP Ser235/236 were used to detect AKT phosphorylation (p-AKT) and S6RP phosphorylation (p-S6RP) in CD34^+/CD3^−/CD14^−/CD19/CD66^− (BD Biosciences) gated cells using flow cytometry. The percentage of basal (i.e. untreated with TPO) AKT and S6RP phosphorylation were normalized to vehicle control. A two-tailed paired t-test (GraphPad Prism) was used to calculate p-values. Values of p<0.05 were considered significant.
Similar studies were conducted with PI3K inhibitors Compounds C and D. PBMC from MF patients had received ruxolitinib (rux) and MF patient had received Compound A. The cells were treated with Compounds C or D at 0, 20.0, 200.0, 2000.0 nM for 2 hours at 37° C. Cells were treated with TPO for 10 minutes. The percentage of basal p-AKT and p-S6RP levels were normalized to vehicle control and those of TPO-treated were normalized to TPO-treated vehicle control. The PI3Kδ inhibitors Compound C is referred by the chemical names of (S)-2-(1-((9H-purin-6-yl)amino)ethyl)-6-fluoro-3-phenylquinazolin-4(3H)-one.

[1] = Compound B 31.25 nM, FcγRIIIa 158V/V
[2] = Compound B 62.5 nM, FcγRIIIa 158F/F
[3] = Compound B 62.5 nM, FcγRIIIa 158F/V
[4] = Compound B 62.5 nM, FcγRIIIa 158V/V
[5] = Compound B 125 nM, FcγRIIIa 158F/F
[6] = Compound B 125 nM, FcγRIIIa 158F/V
[7] = Compound B 125 nM, FcγRIIIa 158V/V
[8] = Compound B 250 nM, FcγRIIIa 158F/F
[9] = Compound B 250 nM, FcγRIIIa 158F/V
[10] = Compound B 250 nM, FcγRIIIa 158V/V
[11] = Compound B 500 nM, FcγRIIIa 158F/F
[12] = Compound B 500 nM, FcγRIIIa 158F/V
[13] = Compound B 500 nM, FcγRIIIa 158V/V
[14] = Compound B 1000 nM, FcγRIIIa 158F/F, n=2
[15] = Compound B 1000 nM, FcγRIIIa 158F/V, n=2

Chain of PI3Kδ (O00329 whole entry, canonical isoform): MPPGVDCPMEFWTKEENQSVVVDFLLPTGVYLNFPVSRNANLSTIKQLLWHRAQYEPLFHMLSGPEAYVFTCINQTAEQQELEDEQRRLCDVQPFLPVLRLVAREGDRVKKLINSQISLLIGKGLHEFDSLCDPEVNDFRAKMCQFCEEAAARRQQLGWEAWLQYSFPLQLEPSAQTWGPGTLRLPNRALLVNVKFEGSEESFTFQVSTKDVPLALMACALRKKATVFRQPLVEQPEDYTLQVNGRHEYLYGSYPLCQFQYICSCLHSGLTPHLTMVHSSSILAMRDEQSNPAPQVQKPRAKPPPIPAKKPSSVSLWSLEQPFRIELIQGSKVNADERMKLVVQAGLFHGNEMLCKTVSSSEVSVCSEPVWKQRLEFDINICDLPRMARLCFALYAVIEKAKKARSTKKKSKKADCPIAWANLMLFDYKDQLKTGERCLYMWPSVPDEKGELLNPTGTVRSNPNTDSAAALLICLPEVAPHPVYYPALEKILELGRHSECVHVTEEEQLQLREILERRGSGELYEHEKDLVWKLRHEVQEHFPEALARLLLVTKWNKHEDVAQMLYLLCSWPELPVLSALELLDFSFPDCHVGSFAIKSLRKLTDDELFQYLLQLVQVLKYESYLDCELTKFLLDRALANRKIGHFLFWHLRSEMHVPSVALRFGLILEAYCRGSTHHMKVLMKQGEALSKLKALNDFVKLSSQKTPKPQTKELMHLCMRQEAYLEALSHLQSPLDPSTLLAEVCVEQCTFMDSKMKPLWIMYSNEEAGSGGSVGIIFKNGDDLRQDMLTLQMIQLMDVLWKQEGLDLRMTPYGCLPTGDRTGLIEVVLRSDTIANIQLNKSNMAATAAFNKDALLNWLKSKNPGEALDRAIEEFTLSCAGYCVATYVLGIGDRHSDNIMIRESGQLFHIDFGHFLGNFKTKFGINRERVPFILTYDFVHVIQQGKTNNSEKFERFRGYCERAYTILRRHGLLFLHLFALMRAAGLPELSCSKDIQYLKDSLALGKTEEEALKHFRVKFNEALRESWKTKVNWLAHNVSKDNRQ
Chain of PI3Kδ (P27986 whole entry partner, canonical isoform): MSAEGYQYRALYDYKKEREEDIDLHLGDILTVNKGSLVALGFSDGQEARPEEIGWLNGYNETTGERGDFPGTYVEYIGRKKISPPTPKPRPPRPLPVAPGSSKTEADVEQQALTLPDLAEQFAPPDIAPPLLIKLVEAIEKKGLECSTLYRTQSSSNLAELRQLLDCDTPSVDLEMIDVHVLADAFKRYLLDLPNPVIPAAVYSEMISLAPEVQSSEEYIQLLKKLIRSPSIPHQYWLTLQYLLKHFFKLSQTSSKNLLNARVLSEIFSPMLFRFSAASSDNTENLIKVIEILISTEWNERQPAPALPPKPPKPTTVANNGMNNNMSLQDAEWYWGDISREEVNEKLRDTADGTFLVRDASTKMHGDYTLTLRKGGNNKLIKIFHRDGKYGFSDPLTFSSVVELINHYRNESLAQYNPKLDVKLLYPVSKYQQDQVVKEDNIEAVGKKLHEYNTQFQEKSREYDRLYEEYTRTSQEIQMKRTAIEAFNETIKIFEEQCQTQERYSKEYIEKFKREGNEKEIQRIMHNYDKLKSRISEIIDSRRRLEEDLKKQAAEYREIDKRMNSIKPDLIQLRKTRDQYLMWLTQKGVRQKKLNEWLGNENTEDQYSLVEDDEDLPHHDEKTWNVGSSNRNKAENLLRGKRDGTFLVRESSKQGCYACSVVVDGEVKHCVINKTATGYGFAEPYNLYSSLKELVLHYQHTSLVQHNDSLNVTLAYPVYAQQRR

## CC[C@H](Nc1ncnc2[nH]cnc12)c1nc2cccc(F)c2c(=O)n1-c1ccccc1 [Compound B, (S)-2-(1-((9H-purin-6-yl)amino)propyl)-5-fluoro-3-phenylquinazolin-4(3H)-one]
WIL2-S; [1]
  Percentage of maximum ADCC, obinutuzumab: 95% and 82%
  Percentage of maximum ADCC, rituximab: 94%
WIL2-S; Compound B 31.25 nM, FcγRIIIa 158F/V
  Percentage of maximum ADCC, rituximab: 100% and 104%
WIL2-S; [2]
  Percentage of maximum ADCC, obinutuzumab: 88% and 108%
  Percentage of maximum ADCC, rituximab: 88% and 108%
WIL2-S; [3]
  Percentage of maximum ADCC, obinutuzumab: 112% and 103%
  Percentage of maximum ADCC, rituximab: 101% and 107%
WIL2-S; [4]
  Percentage of maximum ADCC, obinutuzumab: 98% and 78%
  Percentage of maximum ADCC, rituximab: 96% and 99%
WIL2-S; [5]
  Percentage of maximum ADCC, obinutuzumab: 87% and 110%
  Percentage of maximum ADCC, rituximab: 87% and 108%
WIL2-S; [6]
  Percentage of maximum ADCC, obinutuzumab: 111% and 105%
  Percentage of maximum ADCC, rituximab: 105% and 102%
WIL2-S; [7]
  Percentage of maximum ADCC, obinutuzumab: 94% and 84%
  Percentage of maximum ADCC, rituximab: 95% and 98%
WIL2-S; [8]
  Percentage of maximum ADCC, obinutuzumab: 91% and 109%
  Percentage of maximum ADCC, rituximab: 87% and 109%
WIL2-S; [9]
  Percentage of maximum ADCC, obinutuzumab: 106% and 102%
  Percentage of maximum ADCC, rituximab: 98% and 101%
WIL2-S; [10]
  Percentage of maximum ADCC, obinutuzumab: 99% and 89%
  Percentage of maximum ADCC, rituximab: 95% and 94%
WIL2-S; [11]
  Percentage of maximum ADCC, obinutuzumab: 83% and 104%
  Percentage of maximum ADCC, rituximab: 84% and 105%
WIL2-S; [12]
  Percentage of maximum ADCC, obinutuzumab: 106% and 94%
  Percentage of maximum ADCC, rituximab: 95% and 99%
WIL2-S; [13]
  Percentage of maximum ADCC, obinutuzumab: 92% and 79%
  Percentage of maximum ADCC, rituximab: 91% and 96%
WIL2-S; [14]
  Percentage of maximum ADCC, obinutuzumab: 79% and 103%
  Percentage of maximum ADCC, rituximab: 80% and 100%
WIL2-S; [15]
  Percentage of maximum ADCC, obinutuzumab: 105% and 93%
  Percentage of maximum ADCC, rituximab: 95% and 88%
WIL2-S; Compound B 1000 nM, FcγRIIIa 158V/V, n=2
  Percentage of maximum ADCC, rituximab: 87% and 84%
WIL2-S; WIL2-S, E:T=10:1, 4 h, n=9
  effect on obinutuzumab-mediated ADCC: did not affect
WIL2-S; varying E:T ratios, antibody 10 μg/mL, n=3
  effect on NK-mediated ADCC: did not affect
PI3Kδ
  selectivity among PI3K isoforms: selective inhibitor to PI3Kδ
PI3Kδ; steady-state ATP
  inhibition to PI3Kδ compared to PI3Kα: 450 fold
  inhibition to PI3Kδ compared to PI3Kβ: 210 fold
  inhibition to PI3Kδ compared to PI3Kγ: 110 fold
p-AKT Ser473; 0.02 μM 2 h, naïve MF patients
  normalized percentage of basal AKT phosphorylation (p-AKT): 99% and 102% and 83% and 88% and 84%
p-AKT Ser473; 0.02 μM 2 h, rux-treated MF patients
  normalized percentage of basal AKT phosphorylation (p-AKT): 88% and 89% (2×) and 91% and 57% and 96% and 100%
p-AKT Ser473; 0.2 μM 2 h, naïve MF patients
  normalized percentage of basal AKT phosphorylation (p-AKT): 64% and 127% and 75% and 76% and 81% and 72%
p-AKT Ser473; 0.2 μM 2 h, rux-treated MF patients
  normalized percentage of basal AKT phosphorylation (p-AKT): 85% and 78% and 81% and 82% (2×) and 52% and 87%
p-AKT Ser473; 2 μM 2 h, naïve MF patients
  normalized percentage of basal AKT phosphorylation (p-AKT): 55% and 96% and 66% (2×) and 70% and 47%
p-AKT Ser473; 2 μM 2 h, rux-treated MF patients
  normalized percentage of basal AKT phosphorylation (p-AKT): 69% and 77% and 83% and 84% and 43% and 98% and 79%
